Columns and labels:
[1] = target: T1, serotonin-2 receptor (Rattus norvegicus, UniProt P14842); assay: head twitch test, inhibition of the head twitch induced by 5-hydroxytryptophane in the rat; type: in vivo, Male Wistar rats
T1 construct: Male Wistar rats (120-180 g) are fasted for 18 hr prior to testing; from tissue; host or cells: whole living animal (male Wistar rat), endogenous receptor of the central nervous system
Experimental: The serotonin-2 antagonism or blockade is determined in vivo by measuring the inhibition of the head twitch induced by 5-hydroxytryptophane (the metabolic precursor of serotonin) in the rat. The head twitch test for assessing central nervous system serotonin-2 receptor antagonism in the rat is described in Neuropharmacology 16, 663 (1977) and in J. Pharmacol. Exp. Ther. 228, 133 (1984). The test is carried out as follows:
Male Wistar rats (120-180 g) are fasted for 18 hr prior to testing but allowed water ad libitum. All animals are pretreated with the peripheral decarboxylase inbihitor alpha-methyl-DOPA hydrazine (carbidopa 25 mg/kg i.p., 4.0 ml/kg) followed 30 min later by 5-hydroxytryptophan (5HTP 100 mg/kg s.c., 4.0 ml/kg). Ninety minutes after receiving 5HTP, the rats are placed individually in plexiglas observation cages and the frequency of head twitches for each animal is counted over a 10 min observation period. The test compound or vehicle is administered at either 0.5 hr at 1.0 ml/kg i.p. or at 1, 2 or 4 hr at 10 ml/kg p.o. prior to the observation period. ED50 values are determined by probit analysis.

[2] = target: T2, serotonin-2 (HT-2) receptor (Rattus norvegicus, UniProt P14842); assay: serotonin-2 (HT-2) receptor binding, inhibition of specific binding of ^3 H-ketanserin in frontal/parietal cortex membranes; parameters: species or system male Sprague-Dawley rats; settings: specific binding of ^3 H-ketanserin (0.4 nM)
T2 construct: membrane preparations of frontal/parietal cortex from male Sprague-Dawley rats; from tissue; host or cells: rat frontal/parietal cortex membranes (male Sprague-Dawley)
Experimental: The serotonin-2 (HT-2) receptor binding properties, indicative of the serotonin-2 antagonist activity of the compounds of the invention, are determined in vitro by determining their ability to inhibit the specific binding of ^3 H-ketanserin, essentially as described by Battaglia et al in Life Sciences 33, 2011 (1983), in membrane preparations of frontal/parietal cortex from male Sprague-Dawley rats (200-225 g). IC50 values, representing the concentration of compound required to displace 50% of specific binding of 0.4 nM of ^3 H-ketanserin, are determined by log-logit analysis of the specific binding data. Selectivity for the HT-2 receptors can be determined by also measuring specific binding to serotonin-1 (HT-1) receptors, e.g. according to Middlemiss, D. N. and Fozard, J. R. in Eur. J. Pharmacol. 90, 151 (1980).

T1 sequence (P14842 whole entry): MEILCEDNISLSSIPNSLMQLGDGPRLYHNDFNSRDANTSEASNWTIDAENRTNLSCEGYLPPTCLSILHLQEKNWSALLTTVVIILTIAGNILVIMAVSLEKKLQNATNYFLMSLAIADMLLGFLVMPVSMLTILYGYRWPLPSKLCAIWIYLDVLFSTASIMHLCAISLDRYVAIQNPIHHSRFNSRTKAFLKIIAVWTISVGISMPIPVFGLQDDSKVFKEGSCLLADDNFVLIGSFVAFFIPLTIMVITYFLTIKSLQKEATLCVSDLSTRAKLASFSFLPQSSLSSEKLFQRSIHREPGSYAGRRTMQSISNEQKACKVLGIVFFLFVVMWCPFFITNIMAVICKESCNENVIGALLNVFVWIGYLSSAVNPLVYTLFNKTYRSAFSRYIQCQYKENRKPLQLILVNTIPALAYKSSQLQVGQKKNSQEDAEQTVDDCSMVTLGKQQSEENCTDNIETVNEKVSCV
T2 sequence (P14842 whole entry): as above

`CCSC[C@H]1CN(C)C[C@H]2c3cc(OC)cc(Br)c3OC[C@H]12` (relative stereo) [Example 4, (±)-[4R*,4aS*,10bR*]-7-Bromo-4-(ethylthiomethyl)-1,3,4,4a,5,10b-hexahydro-9-methoxy-2-methyl-2H-[1]benzopyrano[4,3-c]pyridine] was tested. Which ED50 ([1]; 0.5 h, ip (at 30 minutes)) did it give?
Its ED50 is 1.1 mg/kg.

And the ED50 ([1]; po (at 1 hour))?
The ED50 was 0.71 mg/kg.

What about the IC50 [2] of the same compound?
Its IC50 is 22 nM.

Source: US4666916A, “Hexahydro-(1)-benzo-(pyrano and thiopyrano) (4,3-C)pyridines, useful as serotin-2 blocking agents” (Ciba-Geigy Corporation, priority 1985, dated 1987)
